This is an account of results in US12091411B2, “IRAK degraders and uses thereof” (Kymera Therapeutics, Inc., priority 2022, dated 2024).

Read-outs that look alike come from different tables or passages of the source. Some results are limits rather than exact numbers.

The target in the experiment is T1, IRAK4 (Homo sapiens, UniProt Q9NWZ3).
T1 construct: Degradation of IRAK4 in OCI-LY10 was quantitatively measured using Meso Scale Discovery technology; endogenous in cells; host or cells: OCI-LY10
T1 sequence (Q9NWZ3 1-460): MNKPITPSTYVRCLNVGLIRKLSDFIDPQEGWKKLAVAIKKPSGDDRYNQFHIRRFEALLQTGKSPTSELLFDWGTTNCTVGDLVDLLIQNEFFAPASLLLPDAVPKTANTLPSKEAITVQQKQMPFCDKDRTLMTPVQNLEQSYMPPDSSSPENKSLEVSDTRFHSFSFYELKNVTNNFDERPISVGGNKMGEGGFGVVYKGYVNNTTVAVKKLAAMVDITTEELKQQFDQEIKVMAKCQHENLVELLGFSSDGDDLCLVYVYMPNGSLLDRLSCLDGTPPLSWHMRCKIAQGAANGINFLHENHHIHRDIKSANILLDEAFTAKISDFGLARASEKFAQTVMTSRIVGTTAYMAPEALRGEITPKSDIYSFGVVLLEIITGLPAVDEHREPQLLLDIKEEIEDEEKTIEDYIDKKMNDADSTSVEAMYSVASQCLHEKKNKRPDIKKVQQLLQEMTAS
The experiment can be described thus: IRAK4 MSD Degradation in OCI-LY10. The settings on record: OCI-LY10 cells, MSD. Type of experiment: cell-based. In outline:
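OCI-LY10 cells exposed to 8-point 1:3 compound series (top 1 to 10 μM) for 4 to 24 h at 37 °C, 5% CO2. Lysate IRAK4 quantified by MSD sandwich immunoassay. DC50 from three-parameter logistic fit, binned A (<0.01 μM) to D (>0.2 μM or not tested).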

[1] abbreviates: 4 hrs incubation, read-out: IRAK4 degradation in OCI-LY10 at 4 hrs: DC50.
Setting [2] is: 24 hrs incubation, read-out: IRAK4 degradation in OCI-LY10 at 24 hrs: DC50.

The DC50 is the concentration giving 50% degradation. For `Cc1cccc(C(=O)Nc2cc3cn([C@H]4CC[C@H](CN5CCN(c6c(F)ccc7c6n(C)c(=O)n7C6CCC(=O)NC6=O)CC5)CC4)nc3cn2)n1` (some centres unmarked) [I-695], the DC50 was greater than 200 nM under setting [1] and less than 10 nM under setting [2].

Consider `Cn1c(=O)n(C2CCC(=O)NC2=O)c2cccc(OC3CN(C[C@H]4CC[C@H](n5cc6cc(NC(=O)c7cccc(C(F)(F)F)n7)c(C(C)(C)O)cc6n5)CC4)C3)c21` (some centres unmarked) [I-696], for which the DC50 is greater than 200 nM under setting [1] and less than 10 nM under setting [2].

Consider `CN(c1cccc2c1n(C)c(=O)n2C1CCC(=O)NC1=O)C1CN(C[C@H]2CC[C@H](n3cc(NC(=O)c4cnn5ccc(N6C[C@H]7C[C@@H]6CO7)nc45)c(C(F)F)n3)CC2)C1` (some centres unmarked) [I-697], for which the DC50 under setting [1] is greater than 200 nM and the DC50 under setting [2] was less than 10 nM.

`CN(c1cccc2c1n(C)c(=O)n2C1CCC(=O)NC1=O)C1CN(C[C@H]2CC[C@H](n3cc4cc(NC(=O)c5cccc(C(F)(F)F)n5)ncc4n3)CC2)C1` (some centres unmarked) [I-698]: the DC50 was greater than 200 nM under setting [1] and greater than 200 nM under setting [2].

Take `CN(c1cccc2c1n(C)c(=O)n2C1CCC(=O)NC1=O)C1CN(C[C@H]2CC[C@H](n3cc4cc(NC(=O)c5cccc(C(F)(F)F)n5)ccc4n3)CC2)C1` (some centres unmarked) [I-699]: the 50% degradation concentration (DC50) is greater than 200 nM under setting [1] and greater than 200 nM under setting [2].

Consider `CN(CC1CCN(c2cccc3c2n(C)c(=O)n3C2CCC(=O)NC2=O)CC1)c1ccc(-n2cc(NC(=O)c3cnn4cccnc34)c(C(F)F)n2)cc1` (centres unmarked) [I-700], for which the DC50 under setting [1] was greater than 200 nM.

As to `Cn1c(=O)n(C2CCC(=O)NC2=O)c2cccc(N3CCN(C4CCN(C[C@H]5CC[C@H](n6cc(NC(=O)c7cnn8ccc(N9C[C@H]%10C[C@@H]9CO%10)nc78)c(C(F)F)n6)CC5)CC4(F)F)CC3)c21` (some centres unmarked) [I-701], the DC50 reads like this: under setting [1], greater than 200 nM; under setting [2], less than 10 nM.

Take `Cn1c(=O)n(C2CCC(=O)NC2=O)c2cccc(CN3CC4(CCN(Cc5ccc(-n6cc(NC(=O)c7cnn8ccc(N9C[C@H]%10C[C@@H]9CO%10)nc78)c(C(F)F)n6)cc5)CC4)C3)c21` (some centres unmarked) [I-702]: the DC50 under setting [1] was greater than 200 nM and the half-maximal degradation concentration (DC50) under setting [2] was in the range of 10 to 100 nM.

`Cn1c(=O)n(C2CCC(=O)NC2=O)c2cccc(C#CCN3CCN(C[C@H]4CC[C@H](n5cc(NC(=O)c6cnn7ccc(N8CCOC(F)(F)C8)nc67)c(C(F)F)n5)CC4)CC3)c21` (some centres unmarked) [I-703]: the 50% degradation concentration (DC50) is greater than 200 nM under setting [1] and less than 10 nM under setting [2].

As to `COc1cc2nn([C@H]3CC[C@H](CN4CC=C(c5ccc6c(c5)n(C)c(=O)n6C5CCC(=O)NC5=O)C(F)(F)C4)CC3)cc2cc1NC(=O)c1cccc(C(F)(F)F)n1` (some centres unmarked) [I-704], the DC50 reads like this: under setting [1], greater than 200 nM; under setting [2], 10 to 100 nM.

With `Cn1c(=O)n(C2CCC(=O)NC2=O)c2cccc(C3CCN(C[C@H]4CC[C@H](n5cc6cc(NC(=O)c7cccc(C(F)(F)F)n7)c(C#N)cc6n5)CC4)CC3(F)F)c21` (some centres unmarked) [I-705], the half-maximal degradation concentration (DC50) is greater than 200 nM under setting [1] and less than 10 nM under setting [2].

For the compound `Cn1c(=O)n(C2CCC(=O)NC2=O)c2cccc(C3=CCN(C[C@H]4CC[C@H](n5cc6cc(NC(=O)c7cccc(C(F)(F)F)n7)ccc6n5)CC4)CC3F)c21` (some centres unmarked) [I-706], the DC50 was greater than 200 nM under setting [1] and 10 to 100 nM under setting [2].

On to `Cn1c(=O)n(C2CCC(=O)NC2=O)c2cccc([C@H]3CCN(C[C@H]4CC[C@H](n5cc6cc(NC(=O)c7cccc(C(F)(F)F)n7)ccc6n5)CC4)C[C@@H]3O)c21` (some centres unmarked) [I-707], for which the DC50 is, setting by setting: under setting [1], greater than 200 nM; under setting [2], less than 10 nM.

Turning to `Cn1c(=O)n(C2CCC(=O)NC2=O)c2cccc(C3CCN(C[C@H]4CC[C@H](n5cc6cc(NC(=O)c7cccc(C(F)(F)F)n7)ccc6n5)CC4)CC3(F)F)c21` (some centres unmarked) [I-708], the DC50 was greater than 200 nM under setting [1] and 10 to 100 nM under setting [2].

On to `O=C1CCN(c2cncc3c(C4CCN(C[C@H]5CC[C@H](n6cc7cc(NC(=O)c8cccc(C(F)(F)F)n8)ccc7n6)CC5)CC4(F)F)cccc23)C(=O)N1` (some centres unmarked) [I-709], for which the half-maximal degradation concentration (DC50) under setting [1] was greater than 200 nM and the half-maximal degradation concentration (DC50) under setting [2] lay in the range of 10 to 100 nM.

For the compound `COc1cc2nn([C@H]3CC[C@H](CN(C)C4CCN(c5cccc6c5n(C)c(=O)n6C5CCC(=O)NC5=O)CC4(F)F)CC3)cc2cc1NC(=O)c1cccc(C(F)(F)F)n1` (some centres unmarked) [I-710], the half-maximal degradation concentration (DC50) by setting is: under setting [1], greater than 200 nM; under setting [2], 10 to 100 nM.

Take `Cn1c(=O)n(C2CCC(=O)NC2=O)c2cccc(C3CCN(C[C@]4(O)CC[C@@H](n5cc6cc(NC(=O)c7cccc(C(F)(F)F)n7)ccc6n5)CC4)CC3)c21` (some centres unmarked) [I-711]: the half-maximal degradation concentration (DC50) reads like this: under setting [1], greater than 200 nM; under setting [2], less than 10 nM.

In the case of `Cn1c(=O)n(C2CCC(=O)NC2=O)c2ccc(N3CCN(CC4COC5(C4)CN(C[C@H]4CC[C@H](n6cc(NC(=O)c7cnn8ccc(N9C[C@H]%10C[C@@H]9CO%10)nc78)c(C(F)F)n6)CC4)C5)CC3)cc21` (some centres unmarked) [I-712], the DC50 runs as follows: under setting [1], greater than 200 nM; under setting [2], less than 10 nM.

For `Cn1c(=O)n(C2CCC(=O)NC2=O)c2cccc(C3=CCN(C[C@H]4CC[C@H](n5cc6cc(NC(=O)c7cccc(C(F)(F)F)n7)c(C#N)cc6n5)CC4)CC3F)c21` (some centres unmarked) [I-713], the DC50 is greater than 200 nM under setting [1] and less than 10 nM under setting [2].

`Cn1c(=O)n(C2CCC(=O)NC2=O)c2cccc(C#CCO[C@H]3CCN(C[C@H]4CC[C@H](n5cc(NC(=O)c6cnn7ccc(N8CCS(=O)(=O)CC8)nc67)c(C(F)F)n5)CC4)C[C@@H]3F)c21` (some centres unmarked) [I-714]: the 50% degradation concentration (DC50) under setting [1] was greater than 200 nM and the DC50 under setting [2] is less than 10 nM.

Regarding `Cn1c(=O)n(C2CCC(=O)NC2=O)c2cccc(C#CCO[C@@H]3CCN(C[C@H]4CC[C@H](n5cc(NC(=O)c6cnn7ccc(N8CCS(=O)(=O)CC8)nc67)c(C(F)F)n5)CC4)C[C@H]3F)c21` (some centres unmarked) [I-715], the 50% degradation concentration (DC50) was greater than 200 nM under setting [1] and less than 10 nM under setting [2].

Consider `Cn1c(=O)n(C2CCC(=O)NC2=O)c2cccc(C3CCN(C[C@H]4CC[C@H](n5cc6cc(NC(=O)c7cccc(C#N)n7)ccc6n5)CC4)CC3(F)F)c21` (some centres unmarked) [I-716], for which the DC50 under setting [1] is greater than 200 nM and the DC50 under setting [2] is less than 10 nM.

As for `Cn1c(=O)n(C2CCC(=O)NC2=O)c2cccc([C@H]3CCN(C[C@H]4CC[C@H](n5cc6cc(NC(=O)c7cccc(C(F)(F)F)n7)ncc6n5)CC4)C[C@@H]3F)c21` (some centres unmarked) [I-717], the DC50 is greater than 200 nM under setting [1] and less than 10 nM under setting [2].

In the case of `Cn1c(=O)n(C2CCC(=O)NC2=O)c2cccc([C@H]3C[C@H](CO[C@H]4CCN(C[C@H]5CC[C@H](n6cc(NC(=O)c7cnn8ccc(N9C[C@H]%10C[C@@H]9CO%10)nc78)c(C(F)F)n6)CC5)C[C@@H]4F)C3)c21` (some centres unmarked) [I-718], the half-maximal degradation concentration (DC50) under setting [1] is greater than 200 nM and the half-maximal degradation concentration (DC50) under setting [2] was less than 10 nM.

Regarding `Cn1c(=O)n(C2CCC(=O)NC2=O)c2cccc(C3CCN(C[C@H]4CC[C@H](n5cc6cc(NC(=O)c7cnn8ccc(N9C[C@H]%10C[C@@H]9CO%10)nc78)ccc6n5)CC4)CC3(F)F)c21` (some centres unmarked) [I-719], the DC50 under setting [1] is greater than 200 nM and the DC50 under setting [2] was less than 10 nM.

For the compound `Cn1c(=O)n(C2CCC(=O)NC2=O)c2cccc(N3CCN([C@@H]4CCN(C[C@H]5CC[C@H](n6cc(NC(=O)c7cnn8ccc(N9C[C@H]%10C[C@@H]9CO%10)nc78)c(C(F)F)n6)CC5)CC4(F)F)CC3)c21` (some centres unmarked) [I-720], the DC50 was greater than 200 nM under setting [1] and less than 10 nM under setting [2].

As for `Cn1c(=O)n(C2CCC(=O)NC2=O)c2cccc(N3CCN([C@H]4CCN(C[C@H]5CC[C@H](n6cc(NC(=O)c7cnn8ccc(N9C[C@H]%10C[C@@H]9CO%10)nc78)c(C(F)F)n6)CC5)CC4(F)F)CC3)c21` (some centres unmarked) [I-721], the DC50 by setting is: under setting [1], greater than 200 nM; under setting [2], less than 10 nM.
